From patent US5747545A, “Method of preventing NMDA receptor complex-mediated Neuronal damage” (priority 1995, dated 1998)
“Also recorded” adds a separate entry of the source.

Legend:
[1] = tested on: NMDA receptor (rat cortical neurons in culture); experiment: Digital fura-2 imaging of NMDA-evoked intracellular [Ca2+] in cultured cortical neurons; format: cell-based, rat (Sprague-Dawley); conditions: after 2 mM DTT; 3 min exposure to 100 μM SNOC; NMDA 50 μM; FIG. 5A, P<0.01
[2] = tested on: cortical neurons (neuronal survival)
Protocol: S-nitrosocysteine was added as a source of NO.cndot. to cerebrocortical cultures (Lei et al., (1992) Neuron 8:1087-1099; Stamler et al., (1992) Science 258:1898-1902).
Peroxynitrite leads to lipid peroxidation and massive oxidation of sulfhydryls (Radi et al., (1991) J. Biol. Chem. 266:4244-4250; Radi et al., (1991) Arch. Biochem. Biophys. 288:481-487).
Values are expressed as mean+s.e.m. (n=9). Statistical comparisons were performed by an analysis of variance followed by a Scheffe multiple comparison of means (*, P<0.01 compared to control; **, P<0.05 compared to control; .dagger., P<0.01 compared to nitroso compound+SOD/catalase).
Specifically, the data in FIG. 7 were generated using mixed neuronal and glial cortical cultures from neonatal rats, as described previously (Lei, et al., (1992) Neuron 8:1087-1099). In at least three separate experiments, triplicate cultures were incubated overnight in Earle's buffered saline solution (EBSS) containing various concentrations of SNOC, peroxynitrite, SOD, catalase, or glutamate. […] The culture fluid was assayed for […] (LDH) as an indicator of neuronal survival by measuring the absorbance at 450 nm (Koh et al., (1987) J. Neurosci. Meth. 20:83-90). The cultures were also scored for neuronal viability by cell counting, generally with 0.2% trypan blue, after fixation in 2.5% glutaraldehyde, as described above. Neurons from cultures grown on 15 mm diameter cover slips were counted in a masked fashion in ~30 microscopic fields at 200 x.

physchem = format: physicochemical; conditions: pH 7.4
[3] = tested on: quisqualate (QUIS)-elicited current (rat retinal ganglion cells); experiment: Whole-cell patch clamp of quisqualate-elicited current on rat retinal ganglion cells; format: cell-based, rat (Long-Evans); conditions: 12 μM memantine, 5 μM quisqualate
Excerpt: (§1) FIGS. 4A'-4B' depict evidence for open-channel block of NMDA-elicited whole-cell current by memantine (MEM) on rat retinal ganglion cells. […] A rapid application system was used to administer the drugs, and a fast washout method was used in the experiments shown in FIGS. 4A' and 4B'.
(§2) For retinal ganglion cell labeling, dissociation, and culture, we used techniques that have been detailed elsewhere (Leifer et al. (1984) Science 224:303-306). […] Two to six days later, the animals were killed by decapitation. Following enucleation, the retinas were dissociated with mild treatment with the enzyme papain. The retinal cells were than plated onto glass coverslips coated with poly-L-lysine in 35 mm tissue culture dishes. The growth medium was Eagle's minimum essential medium supplemented with 0.7% (w/v) methylcellulose, 0.3% (w/v) glucose, 2 mM glutamine, 5% (v/v) rat serum, and 1 μg/ml gentamicin. Retinal ganglion cells were identified by the presence of the retrogradely transported dye granular blue.
(§3) Whole-cell and single-channel recordings of rat retinal ganglion cells were performed as described in detail elsewhere (Hamill et al., 1981; Lipton and Tauck, 1987). […]

[4] = tested on: kainate (KA)-elicited current (rat retinal ganglion cells); experiment: Whole-cell patch clamp of kainate-elicited current on rat retinal ganglion cells; format: cell-based, rat (Long-Evans); conditions: 12 μM memantine, 50 μM kainate
Excerpt: as §1, §2, §3

[5] = tested on: NMDA receptor (rat retinal ganglion cells); experiment: Whole-cell patch clamp of NMDA-elicited current on rat retinal ganglion cells; format: cell-based, rat (Long-Evans)
Excerpt: as §1, §2
Whole-cell and single-channel recordings of rat retinal ganglion cells were performed as described in detail elsewhere (Hamill et al., 1981; Lipton and Tauck, 1987). The neurons were continuously superfused in a chamber at 27°-29° C. with a bath solution composed of (in mM) NaCl, 137.6; KCl, 5.8; CaCl2, 2.5; HEPES, 5; glucose, 22.2; with phenol red, 0.001% (v/v); glycine, 1 μM; pH 7.2; and no added magnesium. The patch pipettes were filled with an intracellular solution containing (in mM) CsCl, 120; tetraethylammonium chloride, 20; HEPES, 10; EGTA, 2.25; CaCl2, 1; and MgCl2, 2; and sometimes with 3 mM Mg-ATP to minimize rundown in prolonged recordings (pH 7.2). […]. Solution changes could be achieved rapidly, within 50-100 msec, by moving the array of constantly flowing pipette tips relative to the cell with a micromanipulator driver. A control pipette containing bath solution and 1 μM TTX was used to wash out NMDA-inducedcurrent rapidly.

[6] = tested on: retinal ganglion cells (NMDA receptor-mediated neurotoxicity); experiment: Retinal ganglion cell survival assay (endogenous glutamate-related toxin, high calcium, low magnesium medium); format: cell-based, rat (Long-Evans); conditions: FIG. 3'
Protocol: To test amantadine derivatives for their ability to prevent neurotoxicity, neuronal cell death may be assayed as follows. […] Two to 6 days later, the animals are sacrificed by decapitation and enucleated, and the retinas quickly removed. The retinas are dissociated by mild treatment with the enzyme papain and cultured in Eagle's minimum essential medium (MEM, catalog #1090, Gibco, Grand Island, N.Y.) supplemented with 0.7% (w/v) methylcellulose, 0.3% (w/v) glucose, 2 mM glutamine, 1 μg/ml gentamicin, and 5% (v/v) rat serum, as described in Lipton et al., J. Physiol. 385:361, 1987. The cells are plated onto 75 mm^2 glass coverslips coated with poly-L-lysine in 35 mm tissue culture dishes. […]
To perform the viability test, the cell-culture medium is exchanged for physiological saline containing 0.0005% fluorescein diacetate for 15-45 s, and then cells are rinsed in saline. […] In contrast, the viable retinal ganglion cells display not only a blue color in the UV light but also a yellow-green fluorescence with filters appropriate for fluorescein. Thus, the use of two exchangeable fluorescence filter sets permits the rapid determination of viable ganglion cells in the cultures. […]

NMDA receptor channels = conditions: Bormann 1989; cited from earlier work
[7] = tested on: NMDA antagonist (MK-801) binding to post-mortem human brain homogenates; conditions: Kornhuber et al. 1989; cited from earlier work

Row | Compound | Effect on NMDA-evoked [Ca2+]i response (SNOC experiment) [1] | Killing of cortical neurons [2] | Maximally-lethal concentration [2] | half-life (physchem) | Effect on quisqualate-elicited current [3] | Effect on kainate-elicited current [4] | Kinetics for blocking/unblocking NMDA receptor-mediated response [5] | Effect of memantine when administered alone ([5]; 12 μM memantine alone, -60 mV, FIG. 4b' left) | Effect on NMDA-induced current ([5]; 12 μM memantine, 200 μM NMDA, -50 and +50 mV) | Inhibition of response to NMDA ([5]; 12 μM memantine, 200 μM NMDA, -60 mV, n=17) | minimal effective concentration ([6]; Rattus norvegicus, compared to control, read-out: Concentration at which increased neuronal survival reached statistical significance) | Effect on retinal ganglion cell death from endogenous glutamate-related toxin ([6]; memantine 1-25 μM, 16-20 h, 37° C.) | Block of NMDA receptor channels (NMDA receptor channels) | Inhibition of binding of MK-801 [7]
1 | N[C@@H](CSN=O)C(=O)O [SNOC, S-nitrosocysteine] | recovered only slightly | dose-dependent killing of cortical neurons | 200 µM | ~30 s |  |  |  |  |  |  |  |  |  | 
2 | CC12CC3CC(C)(C1)CC(N)(C3)C2 [memantine, 1-amino-3,5-dimethyl adamantine] |  |  |  |  | did not affect the current | did not affect the current | relatively rapid | lack of effect | blocking effect | 90% | 6 µM | prevented retinal ganglion cell death from the endogenous glutamate-related toxin in a dose-dependent manner; also recorded: blocks neuronal cell death mediated by excessive stimulation of the NMDA receptor | blocks NMDA receptor channels | inhibits the binding of an NMDA antagonist (MK-801)
